In patent publication US6380158B1, “Motilin homologs” (ZymoGenetics, Inc., priority 1997, dated 2002):

Assays:
[1] = system: antral portion of the stomach; experiment: Rat stomach contraction in vivo: topical application between two transducing crystals on the antrum; design: species or system Sprague-Dawley rats
Description: Two male Sprague-Dawley rats, approximately 12 weeks old (Harlan, Indianapolis, Ind.) were anesthetized with urethane and their stomachs were exposed through a small abdominal incision. Two 2.4 mm transducing crystals (Sonometrics, Ontario, Canada) were placed on the antral portion of the stomach such that circular contractions could be monitored as a change in the distance between the two crystals. The crystals were attached with VETBOND TISSUE ADHESIVE (3M, St. Paul, Minn.).
The amplitude of the NE-induced decrease was approximately 50% of the acetylcholine-induced increase in distance. Both responses were transient.
A negative control of 10 μl of phosphate buffer solution (PBS) applied topically between the crystals had no effect.
A 14 amino acid zsig33 peptide (from amino acid residue 24 (Gly) to amino acid residue 37 (Gln) of SEQ ID NO: 2) was dissolved in PBS) and 10 μl was applied topically for a final concentration of 1 μg, 10 μg or 100 μg.

[2] = system: ob/ob mice; experiment: Oral glucose challenge in ob/ob mice after oral gavage of the peptide (serum glucose levels); type: in vivo; conditions: 100 μg orally, 30 minutes prior to oral glucose challenge
Description: Eight female ob/ob mice, approximately 6 weeks […] old (Jackson Labs, Bar Harbor, Me.) were adapted to a 4 hour daily feeding schedule for two weeks. After two weeks on the feeding schedule, the mice were give 100 μg of a 14 amino acid amino zsig33 peptide (from amino acid residue 24 (Gly) to amino acid residue 37 (Gln) of SEQ ID NO: 2) in 100 μl sterile 0.1% BSA by oral gavage, immediately after their eating period (post-prandially). Thirty minutes later, the mice were challenged orally with a 0.5 ml volume of 25% glucose. Retroorbital bleeds were done to determine serum glucose levels. Blood was drawn prior to zsig33 dosing, prior to oral glucose challenge, and at 1, 2, 4, and 20 hours following the glucose challenge.

[3] = 10 μl of 1 μM applied topically, anesthetized rats

Row | Compound | change in crystal distance (stomach contractions) ([1]; 1 μg in 10 μl PBS applied topically) | change in crystal distance (rate and amplitude of contractions) ([1]; 10 μg in 10 μl PBS applied topically) | change in crystal distance (rate and amplitude of contractions) ([1]; 100 μg in 10 μl PBS applied topically) | post-prandial glucose absorption (serum glucose levels) [2] | amplitude of the NE-induced decrease relative to the acetylcholine-induced increase in distance [1, 3] | change in the distance between the two crystals (circular contractions of the stomach) [1, 3]
1 | zsig33 peptide: 14 amino acid zsig33 peptide, from amino acid residue 24 (Gly) to amino acid residue 37 (Gln) of SEQ ID NO: 2 (GSSFLSPEHQRVQQ) | sustained, rhythmic increase and decrease in crystal distance | enhanced responses in both rate and amplitude | enhanced responses in both rate and amplitude | enhanced post-prandial glucose absorption | – | –
2 | NC[C@H](O)c1ccc(O)c(O)c1 [norepinephrine, reference compound] | – | – | – | – | approximately 50% | reduction in the distance between the two crystals
